This experiment deals with pseudo-lentivectors that express the D614G mutant of the SARS-CoV-2 spike protein. Type of experiment: cell-based.

Each structure is given as a SMILES string. pIC50: −log10 of the molar value.

Turning to `CCN1C(=O)C2SSSSC1C(=O)N2CC(=O)O` (centres unmarked) [compound 3], the “Concentration at onset of inhibition of pseudo-lentivector entry” value is 50 µM.

As to `O=S1(=O)C[C@H](O)[C@H](O)CS1` [compound 16], the pIC50 (read-out: IC50, inhibition of pseudo-lentivector entry) is about 4.30.

The values are drawn from PMC8179002, “Inhibitors of thiol-mediated uptake” (Chemical Science, 2020).
